Test results as given in patent US5279956A, “Activated protein C polypeptides and anti-peptide antibodies, diagnostic methods and systems for inhibiting activated protein C” (The Scripps Research Institute, priority 1991, dated 1994).
pIC50: −log10 of the molar value. No end group written: not given here.

Target: T1, APC (Homo sapiens, UniProt P04070)
T1 construct: begins at amino acid residue position 158 and ends at 419; The light chain is 155 amino acid residues in length; tissue Factor IX concentrate from Immuno AG, Vienna; thrombin from Enzyme Research Laboratories
Test: Activated partial thromboplastin time (APTT) coagulation assay of APC anticoagulant activity
Assay type: biochemical
Settings: APTT assay in the presence of APC
Method: (§1) The effect of the synthetic peptides on APC anticoagulant activity were determined using the APTT assay in the presence of either normal citrate anticoagulated plasma (NHP) or protein S depleted plasma (PSDP). The assays were performed essentially as described. See Marlar et al., Blood, 59:1067-1072 […]; Suzuki et al., J. Biol. Chem., 258:163-168 (1983); Gruber et al., Blood, 73:639-642 (1989); Ohlin et al., Biochem., 29:644-651 (1990). NHP was purchased from George King Bio-Medical, Inc. (Overland Park, Kans.). PSDP was prepared from a normal human citrate-anticoagulated plasma pool from ten healthy donors. Protein S was immunodepleted from the NHP by immunoaffinity chromatography of NHP over an anti-protein S antibody column to form PSDP. The anti-protein S antibody column was prepared by coupling 100 mg of a monoclonal, high-affinity, calcium-independent anti-PS antibody, designated S7, to 30 ml of CNBr-activated Sepharose 4B (Pharmacia) as described in Example 2c1). Residual total protein S content in the resultant PSDP was less than 0.1% protein S as determined by quantitative immunoblotting, by solid-phase ELISA for total protein S and by electroimmunoassay.
For the APTT assay, APC was prepared as described in Example 2c2). The specific anticoagulant activity of APC was determined to be 250 Units/mg. The concentration of the APC used in the assay was initially optimized with respect to the sensitivity of the assay towards APC-induced prolongation of clotting time compared to clotting time without APC.
(§2) Once the optimal concentration of APC was determined, peptides from Table 2 were then separately admixed for a final concentration of 500 μM with 10 nM APC in 100 μl of TBS-BSA at pH 7.4 to form peptide-APC admixtures. The resulting admixtures were maintained for seven minutes at 37° C. Separate aliquots of peptides maintained under the same conditions in the absence of APC served as controls for the inhibitory effect of synthetic peptides on APC anticoagulant activity. After the maintenance period, 100 μl of NHP and 100 μl APTT-reagent Thrombosil (Ortho Diagnostics, Raritan, N.J.) were admixed into each peptide admixture and maintained for 200 seconds at 37° C. to form a pre-coagulation admixture. In some experiments, PSDP was used in the place of NHP to determine the effect of Protein S on the assay system. Coagulation was then initiated by the admixture of 100 μl of 30 mM CaCl2 in TBS prewarmed to 37° C. to each of the pre-coagulation admixtures. The time for clot formation was measured by an Electra 700 Automatic Coagulation Timer (Medical Laboratory Automation, Inc., Mount Vernon, N.Y.). Each peptide's effect was determined in duplicate.
Additional assays were performed to compare the specificity of the inhibitory effect of peptide-(390-404) on APC anticoagulant activity. Both APTT and Xa-1-stage assays were performed with peptide-(390-404) and with the same peptide synthesized in the reverse order, peptide-(404-390), at concentrations of the peptides ranging from 0 μM to 40 μM. In APTT assays performed as described above in the presence of NHP, APC was used at a concentration of 2.5 nM. For APTT assays in the presence of PSDP, APC was used at a concentration of 5 nM. […]
Once the optimal concentration of APC was determined, anti-(390-404) was separately admixed ranging in concentration from 0.0 to 240 nM with APC in 200 μl of TBS-BSA and 30 mM CaCl2 at pH 7.4 to form an anti-(390-404)-APC immunoreaction admixture pre-maintenance solution. […]

T1 sequence (P04070 212-461): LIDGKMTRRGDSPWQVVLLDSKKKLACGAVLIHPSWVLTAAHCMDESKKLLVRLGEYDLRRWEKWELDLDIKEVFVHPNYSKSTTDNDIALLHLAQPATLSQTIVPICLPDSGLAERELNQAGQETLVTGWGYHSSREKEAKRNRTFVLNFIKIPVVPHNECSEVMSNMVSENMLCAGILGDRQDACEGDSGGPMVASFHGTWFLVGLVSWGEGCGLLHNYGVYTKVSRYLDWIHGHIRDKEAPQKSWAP
T1 sequence (P04070 43-197): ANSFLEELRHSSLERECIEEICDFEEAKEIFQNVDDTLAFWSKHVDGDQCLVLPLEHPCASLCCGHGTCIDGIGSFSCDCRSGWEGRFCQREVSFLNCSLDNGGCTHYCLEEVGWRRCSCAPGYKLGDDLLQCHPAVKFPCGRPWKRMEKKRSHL

pIC50 | IC90 | Substance
3.30 | – | VLNFIKIPVVPHNEC-NH2 [peptide-(317-331), VLNFIKIPVVPHNEC]
4.15 | 300 µM | VSRYLDWIHGHIRDK-NH2 [peptide-(396-410), VSRYLDWIHGHIRDK]

Target: T1, APC
Test: APC anticoagulant activity, APTT and Xa-1-stage coagulation assays (mean or both)
Assay type: biochemical
Settings: 500 μM peptide; mean of APTT and Xa-1-stage assays; 0 = no observable effect ± 10%
Method: as §1, with “2c1).” for “2c1). Residual total protein S content in the resultant PSDP was less than 0.1% protein S as determined by quantitative immunoblotting, by solid-phase ELISA for total protein S and by electroimmunoassay.”
For the APTT assay, APC was prepared as described in Example 2c2). […] The concentration of the APC used in the assay was initially optimized with respect to the sensitivity of the assay towards APC-induced prolongation of clotting time compared to clotting time without APC.
as §2
The synthetic peptides listed in Table 4 are presented in the same order as listed in Table 2, i.e., are reproduced from Table 2. […] For peptides at a concentration of 500 μM that inhibited at least 50% of APC anticoagulant activity, analysis of dose-response was subsequently conducted. The column in Table 4 labeled "Inhibition of APC" represents the inhibition of APC anticoagulant activity measured with 500 μM peptide.
For testing the inhibition of the synthetic peptides on APC activity described above, Xa-1-stage coagulation assays were also performed as described. See Seegers et al., Thrombosis Res., 13:233-243 (1978); Marlar et al., supra; and Walker et al., J. Biol. Chem. 265:1484-1489 (1990).

Substance | inhibition at 500 µM | Inhibition of APC (%)
DESKKLLVRLGEYDL [peptide-(214-230)] | – | 0%
DIKEVFVHPNYSKST-NH2 [(239-253), DIKEVFVHPNYSKST] | 20% | –
DTEDQEDQVDPRLID-NH2 [peptide-(158-172), DTEDQEDQVDPRLID] | 0% | –
ELDLDIKEVFVHPNY-NH2 [peptide-(235-249), ELDLDIKEVFVHPNY] | 0% | –
GEYDLRRWEKWELDL-NH2 [peptide-(224-238), GEYDLRRWEKWELDL] | 0% | –
HPSWVLTAAHSMDES-NH2 [peptide-(202-216), HPSWVLTAAH -SMDES] | 0% | –
LDSKKKLASGAVLIH-NH2 [peptide-(188-202), LDSKKKLA -SGAVLIH] | 0% | –
LIDGKMTRRGDSPWQ-NH2 [peptide-(170-184), LIDGKMTRRGDSPWQ] | 0% | –
LLHLAQPATLSQTIV-NH2 [peptide-(260-274), LLHLAQPATLSQTIV] | 0% | –
QDACEGDSGGPMVA-NH2 [peptide-(353-366), QDACEGDSGGPMVA] | 0% | –
RRWEKWELDLDIKEV-NH2 [peptide-(229-243), RRWEKWELDLDIKEV] | 0% | –
SKKLLVRLGEYDLRR-NH2 [peptide-(216-230), SKKLLVRLGEYDLRR] | 0% | –
SKSTTDNDIALLHLA [peptide-(250-263)] | – | 0%
TRRGDSPWQVVLLDS-NH2 [(176-190), TRRGDSPWQVVLLDS] | 25% | –
VLTAAHCMDESKKL-NH2 [peptide-(206-219), VLTAAHCMDESKKL] | 0% | –

The remaining lines, values ahead:

inhibition at 500 µM | Inhibition of APC (%) | Substance
0% | – | AGILGDRQDA-NH2 [peptide-(346-355), AGILGDRQDA]
0% | – | DRQDASEGDSGGPMV-NH2 [peptide-(351-365), DRQDA -SEGDSGGPMV]
0% | – | EVMSNMVSENMLSAG-NH2 [peptide-(333-347), EVMSNMVSENML -SAG]
0% | – | GHIRDKEAPQKSWAP-NH2 [peptide-(405-419), GHIRDKEAPQKSWAP]
– | 0% | GTWFLVLVSWGEGC [peptide-(370-384)]
0% | – | HIWDLYRSVKTYVGY-NH2 [peptide-(404-390), HIWDLYRSVKTYVGY]
0% | – | HSSREKEAKRNRTFV-NH2 [peptide-(303-317), HSSREKEAKRNRTFV]
0% | – | IVPISLPDSGLAERE-NH2 [peptide-(273-287), IVPI -SLPDSGLAERE]
0% | – | LPDSGLAERELNQAG-NH2 [peptide-(278-292), LPDSGLAERELNQAG]
0% | – | MSNMVSENMLCAGI-NH2 [peptide-(335-348), MSNMVSENMLCAGI]
0% | – | PATLSQTIVPICLP-NH2 [peptide-(266-279), PATLSQTIVPICLP]
0% | – | PATLSQTIVPIGLPD-NH2 [peptide-(266-280) SEQ ID NO 8, PATLSQTIVPI -- GLPD]
0% | – | PATLSQTIVPISLPD-NH2 [peptide-(266-280) SEQ ID NO 7, PATLSQTIVPI -SLPD]
0% | – | QETLVTGWGYHSSRE-NH2 [peptide-(293-307), QETLVTGWGYHSSRE]
50% | – | VLNFIKIPVVPHNEC-NH2 [peptide-(317-331), VLNFIKIPVVPHNEC]
95% | – | VSRYLDWIHGHIRDK-NH2 [peptide-(396-410), VSRYLDWIHGHIRDK]

Same assay, conditions: final peptide concentration at which 50% inhibition of APC activity was observed

pIC50 | Substance
3.30 | VLNFIKIPVVPHNEC-NH2 [peptide-(317-331), VLNFIKIPVVPHNEC]
4.15 | VSRYLDWIHGHIRDK-NH2 [peptide-(396-410), VSRYLDWIHGHIRDK]

Same assay, conditions: final peptide concentration at which 90% inhibition of APC activity was observed; read-out: IC90

IC90 | Substance
300 µM | VSRYLDWIHGHIRDK-NH2 [peptide-(396-410), VSRYLDWIHGHIRDK]
